Where “and” joins values, the source holds several entries; their conditions need not be identical. Equal entries are not always repeated. Entries after “also recorded” stand apart in the source; their conditions may differ. Where two headings read alike, the source gives them in different places.
Tests used:
Format in all cases: binding
14-3-3γ/SLP76 [1] = biological target: T1, 14-3-3γ/SLP76 (Homo sapiens, UniProt P61981+Q13094); assay: HTRF dose-response assay on 14-3-3γ/SLP76; conditions: 14-3-3γ-Tb 1 nM, SLP76-AF647 600 nM, 5% DMSO, EC50 estimated from fit
Description: 384-Well logistic plates were prefilled with 2 μL of compounds at 2 mM, 100% DMSO, except for columns 1, 2, 23 and 24. Columns 1, 2 were filled with 2 μL of DMSO while columns 23, 24 were filled with 2 μL of the 14-3-3 inhibitor R18 at 20 μM using a Multidrop Dispenser (ThermoScientific). Next, 40 μL of protein mixture containing Tb-labelled 14-3-3γ at 1 nM and AF647 labelled SLP76 at 600 nM in assay buffer (50 mM Tris pH 7.5, 150 mM NaCl, 5 mM MgCl2, 0.05% v/v Tween-20) were added using a Multidrop Dispenser (ThermoScientific). […] To perform the assay, 30 μL volumes were then transferred using a Biomek FX^P Automated Workstation (Beckman Coulter) into Corning 384-well 3574 assay plates. The plates were incubated at room temperature with gentle shaking for 4 h. Finally, the data were collected on a PHERAstar FSX plate reader (BMG Labtech) with an λex 337 nm, λem 665 nm and 620 nm HTRF filter setting. The data were exported in IDBS ActivityBase (IDBS) where they were normalised setting the R18 negative control as 100% inhibition and the DMSO control as 0%. Negative percentage values were therefore associated with a stabilisation of the 14-3-3γ/SLP76 interaction. The threshold of −20% inhibition (or 20% stabilisation) was chosen to select the hits to follow up. The selected hits were retested on 14-3-3γ/SLP76 and were also tested against an unrelated protein pair (IL-17/receptor) in a similar assay setup. […] All the assays were performed as described above.
(§1) 384 logistic plates were prefilled with 40 μL of compounds at 10 mM, 100% DMSO in column 3. Columns 1, 2 and 4 to 22 were filled with 20 μL of 100% DMSO with a Multidrop Dispenser (ThermoScientific). 2-Fold dilutions of the compounds were carried over from column 3 to 22, with a CyBio FeliX liquid handler (analytikjena). 2 μL of R18 peptide at 20 μM was added to columns 23 and 24 of the Corning 384-well 3574 final assay plates with a Multidrop Dispenser (ThermoScientific). 40 μL of protein mixture, containing Tb labelled 14-3-3γ at 1 nM and AF647 labelled SLP76 at 600 nM in assay buffer (50 mM Tris pH 7.5, 150 mM NaCl, 5 mM MgCl2, 0.05% v/v Tween-20) were added with a Multidrop Dispenser (ThermoScientific) into the Corning 384-well 3574 final assay plates. 2 μL of compounds along with the DMSO control were then transferred with a CyBio FeliX liquid handler (analytikjena) from the 384 logistic plates to the final Corning 384-well 3574 assay plates. […] The dose–response on the first 64 compounds was performed in singlet from a 500 μM top concentration. The repetition on the best 16 compounds was performed in duplicates from a 250 μM top concentration. A dose–response assay on an unrelated 14-3-3ζ/p27 HTRF protein pair was performed as described above. Incubation, data acquisition and normalisation were performed as described above. For EC50 estimation, the data were fitted with a “log(agonist) vs. response (three parameters)” model on GraphPad Prism version 8.1.1 for Windows, GraphPad Software, La Jolla California USA, www.graphpad.com. In the case of duplicates, each data point is the average of a duplicate measurement, standard deviation is reported as error bars.

14-3-3ζ/p27 = 14-3-3ζ/p27 (Homo sapiens, UniProt P46527+P63104); assay: HTRF dose-response assay on 14-3-3ζ/p27; conditions: for Selectivity between 14-3-3γ/SLP76 and 14-3-3ζ/p27 (in words): comparison of HTRF dose-responses
Description: as §1

14-3-3γ/SLP76 [2] = biological target: T1, 14-3-3γ/SLP76; assay: Orthogonal SPR assay, compound flowed with SLP76 over immobilised 14-3-3γ; design: key to SPR RU (%) mass increase 14-3-3γ/SLP76: Ns: no stabilisation observed in SPR; conditions: for Stabilisation in SPR (in words): off-rate / mass on chip versus runs without compound; for SPR RU (%) mass increase 14-3-3γ/SLP76: percentage of SLP76 remained on the chip after the dissociation phase (+240 s)
Description: Of the 16 hit compounds 13 were tested in an orthogonal SPR assay in which each compound was flowed with SLP76 over 14-3-3γ immobilised on the chip. Runs at different concentrations of compound were compared to the runs in absence of compound. […] The effect of the compounds on 14-3-3γ/SLP76 was measured by calculating the percentage of SLP76 remained on the chip after the dissociation phase and immediately before: RU (%) = RU 5 s before dissociation/RU +240 s after dissociation. Dose–response curves were extrapolated from those sensorgrams plotting the RU (%) mass increase over the increase in compound concentrations.
SPR experiments were performed on a Biacore T200 (Cytiva). The Sensor Chip NTA was validated as previously reported by Soini et al.[63] A DMSO tolerance at 2% and 5% was performed in the same way (Fig. S1 ^†).
For compounds testing, the compounds were preincubated with SLP76, in final DMSO concentration of 5%. The compounds were tested at a single concentration of 100 μM and at multiple concentrations following a 3-fold dilution from a top concentration of 100 μM with SLP76 at the saturation concentration of 250 nM. A second set of experiments were performed at multiple concentrations of compound following a 3-fold dilution from a top concentration of 200 μM with SLP76 around the KD concentration of 40 nM. The SLP76/compound mixtures were flowed over the immobilised 14-3-3γ at 30 μL min^−1 for 180 s before allowing dissociation for 5 minutes. After every cycle, the chip was washed with EDTA and Ni^2+ and 14-3-3γ reinjected for the next cycle. The compound effects were measured by calculating the percentage of SLP76 remained on the chip after the dissociation phase and right before: RU (%) = RU 5 s before dissociation/RU +240 s after dissociation. RU response points relative to +240 s after dissociation were also plotted and an apparent EC50 was estimated. The data were fitted with a “One site – specific” model on GraphPad Prism version 8.1.1 for Windows, GraphPad Software, La Jolla California USA, www.graphpad.com.

[3] = stabilisation, read-out: HTRF EC50 14-3-3γ/SLP76
[4] = stabilisation, same FRET pair, EC50 estimated from fit, read-out: HTRF EC50 14-3-3ζ/p27

T1 sequence (Q13094 356-533): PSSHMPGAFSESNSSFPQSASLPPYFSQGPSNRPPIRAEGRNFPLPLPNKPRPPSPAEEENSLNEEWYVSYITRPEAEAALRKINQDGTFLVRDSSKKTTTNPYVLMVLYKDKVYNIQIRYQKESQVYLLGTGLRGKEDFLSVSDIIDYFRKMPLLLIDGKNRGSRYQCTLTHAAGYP
T1 sequence (P61981 whole entry): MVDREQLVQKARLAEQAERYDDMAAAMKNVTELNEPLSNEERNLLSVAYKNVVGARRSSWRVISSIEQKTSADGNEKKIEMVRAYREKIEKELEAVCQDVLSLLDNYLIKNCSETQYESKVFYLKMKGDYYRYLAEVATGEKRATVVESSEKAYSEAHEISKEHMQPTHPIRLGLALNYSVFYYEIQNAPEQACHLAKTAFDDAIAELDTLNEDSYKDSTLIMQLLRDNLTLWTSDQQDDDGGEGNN
Chain of 14-3-3ζ/p27 (P63104 whole entry): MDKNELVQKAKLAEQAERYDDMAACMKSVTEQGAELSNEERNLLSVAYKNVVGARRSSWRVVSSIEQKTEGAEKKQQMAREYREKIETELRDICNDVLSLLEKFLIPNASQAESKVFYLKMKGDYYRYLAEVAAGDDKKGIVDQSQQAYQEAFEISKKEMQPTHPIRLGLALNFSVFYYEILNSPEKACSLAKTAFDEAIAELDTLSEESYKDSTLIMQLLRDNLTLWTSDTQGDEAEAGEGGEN
Chain of 14-3-3ζ/p27 (P46527 whole entry): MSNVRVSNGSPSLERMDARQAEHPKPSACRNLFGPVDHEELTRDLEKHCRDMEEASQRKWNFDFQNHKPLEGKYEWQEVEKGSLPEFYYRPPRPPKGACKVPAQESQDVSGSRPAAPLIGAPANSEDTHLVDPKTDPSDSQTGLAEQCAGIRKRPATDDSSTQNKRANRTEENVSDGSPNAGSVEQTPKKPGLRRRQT

| SMILES | EC50 (14-3-3γ/SLP76 [1]; [3]) | EC50 (14-3-3ζ/p27; [4]) [µM] | Stabilisation in SPR (in words) (14-3-3γ/SLP76 [2]) | SPR RU (%) mass increase 14-3-3γ/SLP76 (14-3-3γ/SLP76 [2]) | EC50 (14-3-3γ/SLP76 [1]; HTRF EC50 14-3-3γ/SLP76, stabilisation) [µM] | EC50 (14-3-3ζ/p27) [µM] | Selectivity between 14-3-3γ/SLP76 and 14-3-3ζ/p27 (in words) (14-3-3ζ/p27) | Selectivity for 14-3-3ζ/p27 over 14-3-3γ/SLP76 (14-3-3ζ/p27; ratio of HTRF EC50s) [fold] | Stabilisation of 14-3-3ζ/p27 in HTRF (in words) (14-3-3ζ/p27) |
| --- | --- | --- | --- | --- | --- | --- | --- | --- | --- |
| CC(=O)CSc1nc2c(c(=O)[nH]c(=O)n2C)n1Cc1cccc(C)c1 [Compound 15, 3-methyl-7-[(3-methylphenyl)methyl]-8-(2-oxopropylsulfanyl)purine-2,6-dione] | 17.1 ± 5.2 µM | 11.6 ± 6.1 | – | – | – | – | – | – | – |
| COc1ccc2c(c1)[C@]1(CC[N+](C)(C)CC(=O)OC(C)(C)C)CCCC[C@@H]1C=C2 [Compound 6, 2-[(4aS,10aR)-6-methoxy-2,3,4,10a-tetrahydro-1H-phenanthren-4a-yl]ethyl-dimethyl-[2-[(2-methylpropan-2-yl)oxy]-2-oxoethyl]azanium] | – | – | no observable stabilisation effect | Ns ^d | 33.5 ± 10.7 | > 250 | selective over 14-3-3ζ/p27 | – | – |
| CC(C)CNC(=O)c1ccc2c(c1)nc1n2CCN(C(C)C)C1=O [Compound 12, N-(2-methylpropyl)-1-oxo-2-propan-2-yl-3,4-dihydropyrazino[1,2-a]benzimidazole-8-carboxamide] | 3.2 µM and 3.8 µM | 0.43 ± 0.37 | orthogonally confirmed by SPR | 67.4% | – | – | – | ~9 | – |
| COc1ccc(C(=O)N2C[C@@H]3CN(CCO3)C(=O)[C@@H]3C[C@@H](CN3Cc3ccc4c(c3)OCO4)NC(=O)C[C@@H]3O[C@H](C2)[C@@H](O)[C@H]3O)cc1 [Compound 4, (3S,6S,10S,11R,12S,13R,17R)-4-(1,3-benzodioxol-5-ylmethyl)-11,12-dihydroxy-15-(4-methoxybenzoyl)-18,22-dioxa-1,4,7,15-tetrazatetracyclo[15.3.1.13,6.110,13]tricosane-2,8-dione] | 17.4 ± 4.9 µM | > 250 | orthogonally confirmed by SPR; also recorded: orthogonally confirmed in the SPR assay | 57.1% | – | – | selective for the 14-3-3γ/SLP76 system | – | – |
| CC1=Nn2c(nnc2-c2ccoc2C)SC1 [Compound 10, 6-methyl-3-(2-methylfuran-3-yl)-7H-[1,2,4]triazolo[3,4-b][1,3,4]thiadiazine] | 70.1 ± 8.7 µM | 16.5 ± 10.6 | no observable stabilisation | Ns ^d | – | – | modest level of selectivity in stabilising 14-3-3ζ/p27 over 14-3-3γ/SLP76 | – | – |
| Fc1ccc(OCc2nn3c(Cn4cnc5ccccc54)nnc3s2)cc1 [Compound 8, 3-(benzimidazol-1-ylmethyl)-6-[(4-fluorophenoxy)methyl]-[1,2,4]triazolo[3,4-b][1,3,4]thiadiazole] | 69.1 ± 22.6 µM | 53.9 ± 17.1 | orthogonally confirmed by SPR | 61.2% | – | – | weak and equipotent stabiliser of both the 14-3-3γ/SLP76 and 14-3-3ζ/p27 systems | – | – |
| O=C(Cn1nc(C(F)(F)F)c2c1CCCC2)Nc1ccc(Cl)c(Cl)c1 [Compound 14, N-(3,4-dichlorophenyl)-2-[3-(trifluoromethyl)-4,5,6,7-tetrahydroindazol-1-yl]acetamide] | 21.2 ± 11.3 µM | 12.6 ± 14.4 | not confirmed in the SPR assay | Ns ^d | – | – | – | – | – |
| CC1=CCC2COC(C[N+]3(C)CCCCC3)C1C2 (stereo not drawn) [Compound 5, 1-methyl-1-[(8-methyl-3-oxabicyclo[3.3.1]non-7-en-2-yl)methyl]piperidin-1-ium] | 71.1 ± 23.9 µM | > 250 | no observable stabilisation effect | Ns ^d | – | – | selective over 14-3-3ζ/p27 | – | – |
| S=c1[nH]nc(Cn2nnc3ccccc32)o1 [Compound 13, 5-(benzotriazol-1-ylmethyl)-1,3,4-oxadiazole-2-thiol] | 4.9 ± 1.1 µM | > 250 | – | Ns ^d | – | – | – | – | – |
| Cc1ccc(-c2ccc3c(n2)C(=N)NC3CCc2ccc(O)cc2)o1 (stereo not drawn) [Compound 11, 4-[2-[7-imino-2-(5-methylfuran-2-yl)-5,6-dihydropyrrolo[3,4-b]pyridin-5-yl]ethyl]phenol] | 29.7 ± 21.8 µM | 129 ± 70.5 | – | – | – | – | – | – | – |
| COc1ccccc1-c1nnc2scnn12 [Compound 9, 3-(2-methoxyphenyl)-[1,2,4]triazolo[3,4-b][1,3,4]thiadiazole] | 24.5 ± 5.8 µM | 5.8 ± 2.2 | orthogonally confirmed by SPR | 58.7% | – | – | modest level of selectivity in stabilising 14-3-3ζ/p27 over 14-3-3γ/SLP76 | – | – |
| CC(C)N1CC[C@H]2COC(=O)N2c2cc(F)ccc2C1 [Compound 2, (6S)-14-fluoro-9-propan-2-yl-4-oxa-2,9-diazatricyclo[9.4.0.02,6]pentadeca-1(15),11,13-trien-3-one] | 18.6 ± 5.5 µM | > 250 | orthogonally confirmed and equipotent by SPR | 67.6% | – | – | selective for the 14-3-3γ/SLP76 interaction | – | no observed stabilisation |
| O=C(c1ccc(Cl)cc1)n1c(Cn2nnc(-c3cccc4ccccc34)n2)n[nH]c1=S [Compound 16, (4-chlorophenyl)-[3-[(5-naphthalen-1-yltetrazol-2-yl)methyl]-5-sulfanylidene-1H-1,2,4-triazol-4-yl]methanone] | 1.2 ± 0.7 µM | 80.6 ± 53.4 | – | – | – | – | – | – | – |

Source: article PMC8459327, “Identification of molecular glues of the SLP76/14-3-3 protein–protein interaction” (RSC Medicinal Chemistry, 2021)
